# Measurements from PubChem BioAssay (NCI).
# Several values for one entry are separate records, joined by “and”; a condition that tells them apart may be missing. Equal values may be shown once.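 Method: 48-hour compound exposure of cells in 96-well plates, five concentrations, linear interpolation of endpoints. The concentration for 50% growth inhibition is given as GI50. TGI: concentration producing complete growth inhibition.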
# Legend:
# Test in all cases: inhibition of tumour cell growth, NCI panel, 48 h
# SK-OV-3 ovarian = system: SK-OV-3 ovarian
# A498 renal = system: A498 renal
# SK-MEL-2 melanoma = system: SK-MEL-2 melanoma
# SR leukemia = system: SR leukemia
# NCI-H23 lung = system: NCI-H23 lung
# CCRF-CEM leukemia = system: CCRF-CEM leukemia
# SF-539 CNS = system: SF-539 CNS
# SNB-75 CNS = system: SNB-75 CNS
# SF-295 CNS = system: SF-295 CNS
# M14 melanoma = system: M14 melanoma
Structure (SMILES),GI50 (SK-OV-3 ovarian),TGI (SK-OV-3 ovarian),GI50 (A498 renal),TGI (A498 renal),GI50 (SK-MEL-2 melanoma),TGI (SK-MEL-2 melanoma),GI50 (SR leukemia),TGI (SR leukemia),GI50 (NCI-H23 lung),TGI (NCI-H23 lung),GI50 (CCRF-CEM leukemia),TGI (CCRF-CEM leukemia),GI50 (SF-539 CNS),TGI (SF-539 CNS),GI50 (SNB-75 CNS),TGI (SNB-75 CNS),GI50 (SF-295 CNS),TGI (SF-295 CNS),GI50 (M14 melanoma),TGI (M14 melanoma)
COC(=O)[C@]12CC[C@@H](C)[C@H](C)[C@@H]1C1=CC[C@@H]3[C@@]4(C)CC(=O)[C@H](O)[C@@]5(C)COC(=C45)C[C@@]3(C)[C@]1(C)CC2,18.2 µM,32.8 µM,18.5 µM,33.2 µM,18.9 µM,37.2 µM,20.4 µM,45.2 µM,17.5 µM,35.7 µM,19.7 µM,43.5 µM,18.8 µM,37.2 µM,16 µM,33 µM,17.9 µM,33.7 µM,18.5 µM,36.9 µM
Nc1nc(N)[n+]([O-])c(N)c1NCO,–,> 100 µM,–,> 100 µM,–,> 100 µM,–,> 100 µM,–,> 100 µM,–,> 100 µM,–,> 100 µM,–,> 100 µM,–,> 100 µM,–,> 100 µM
O=[N+]([O-])c1ccc(-c2ccc(/C=N/n3c(-c4ccc(Cl)cc4)n[nH]c3=S)o2)cc1,–,> 100 µM,–,> 100 µM,–,> 100 µM,–,> 83.6 µM,–,> 56.6 µM,–,> 100 µM,–,> 62.7 µM,–,> 83.1 µM,–,> 64 µM,–,32.3 µM
O=C(c1cccs1)c1c(C(F)(F)F)n([O-])c2ccc(C(F)(F)F)cc2[n+]1=O,1.24 µM,2.56 µM,1.65 µM,3.04 µM,0.785 µM,1.85 µM,0.301 µM,1.28 µM,0.353 µM,1 µM,0.224 µM,2.11 µM,0.183 µM,0.36 µM,0.502 µM,1.21 µM,0.464 µM,1 µM,0.791 µM,1.87 µM
COC1C=C(Nc2cccc(Cl)c2)C(=O)C1 (centres undefined),–,> 100 µM,–,32.2 µM,–,> 100 µM,–,> 100 µM,–,> 100 µM,–,> 100 µM,–,> 100 µM,–,> 100 µM,–,> 100 µM,–,> 100 µM
CCOC(=O)CCC(NC(=O)c1ccc(N=Cc2nc3cc(C(F)(F)F)ccc3nc2-c2ccccc2)cc1)C(=O)OCC (centres undefined),14.1 µM,23.2 µM and 38.2 µM,–,75 µM,37.7 µM,34.7 µM and > 100 µM,> 100 µM,> 100 µM,28.9 µM,21.6 µM and > 100 µM,> 100 µM,> 100 µM,6.03 µM,45.7 µM and 28.4 µM,3.64 µM,13 µM and 14.1 µM,71.9 µM,31.8 µM and > 100 µM,> 100 µM,50 µM and > 100 µM
COc1cc(CCc2cc(NC(=O)c3ccc(N4C[C@@H](C)N[C@@H](C)C4)cc3)n[nH]2)cc(OC)c1,9.23 µM and 7.04 µM,> 10 µM and 19.3 µM,0.014 µM and < 0.0107 µM,0.0838 µM and 0.12 µM,4.17 µM and 4.95 µM,> 10 µM and 18.2 µM,3.75 µM and 2.34 µM,> 10 µM and 5.42 µM,> 10 µM and 3.98 µM,> 10 µM and 17.3 µM,> 10 µM and 3.69 µM,> 10 µM and 18.3 µM,6.6 µM and 4.08 µM,> 10 µM and 15.1 µM,1.93 µM and 2.61 µM,> 10 µM and 11.2 µM,> 10 µM and 6.8 µM,> 10 µM and 21.3 µM,7.13 µM and 2.77 µM,> 10 µM and 10.9 µM
O=[N+]([O-])c1ccc(Sc2ncccn2)c([N+](=O)[O-])c1,12.5 µM,25.2 µM,7.6 µM,20.7 µM,7.15 µM,21.5 µM,1.2 µM,17.9 µM,5.28 µM,19.1 µM,2.04 µM,5.5 µM,2.63 µM,8.82 µM,4.51 µM,17.6 µM,5.93 µM,20 µM,5.26 µM,18.4 µM
C[C@H]1[C@H](OC(=O)CCC(=O)O)O[C@@H]2O[C@]3(C)CC[C@H]4[C@H](C)CC[C@@H]1[C@@]24OO3,16.7 µM,> 89 µM,5.93 µM,33.8 µM,2.86 µM,59.8 µM,0.238 µM,4.27 µM,0.383 µM,10.7 µM,0.452 µM,19.7 µM,0.667 µM,14.5 µM,2.34 µM,17.6 µM,0.518 µM,> 67.3 µM,0.777 µM,14.8 µM
C/C(=N\N(C)C)c1sc(-n2nc(-c3ccccc3)cc2-c2ccccc2)nc1C,–,> 100 µM,–,> 100 µM,–,> 100 µM,–,> 100 µM,–,> 100 µM,–,> 100 µM,–,> 100 µM,–,81.1 µM,–,> 100 µM,–,> 100 µM
